Like-named read-outs stand apart in the source and are kept apart here. Where a SMILES comes first, the peptide text is derived from it. [ ]: non-standard residue; d: D form. Gly(Nα-oleyl) = CCCCCCCC/C=C\CCCCCCCCNCC(=O)O; N(2-ethylhexyl)Gly = CCCCC(CC)CNCC(=O)O; Gly(N-dodecyl) = CCCCCCCCCCCCNCC(=O)O; N(CH(CH2OH)2)Gly = O=C(O)CNC(CO)CO; N(octyl)Gly = CCCCCCCCNCC(=O)O; NDecylGly = CCCCCCCCCCNCC(=O)O
Legend:
[1] = Apparent particle pKa, TNS fluorescence assay; assay type: physicochemical; conditions: Table 5; apparent particle pKa of delivery vehicle
Procedure: The apparent particle pKa was assessed by a TNS fluorescence assay. Briefly, particles were diluted to 130 uM total lipid in TNS buffer ranging in pH 3-11 for 10 minutes with […] of TNS probe. The fluorescence was measured at room temperature in a plate reader ex 320/em 445. Fluorescence intensity was normalized to the minimal and maximal values and the pKa was determined by a 3 parameter fit to determine the half maximum of the curve.

[2] = RBC hemolysis as metric for fusogenicity; assay type: cell-based; conditions: sheep red blood cells (RBCs), 5% v/v, Table 5, delivery vehicle, 37° C. 45 min
Procedure: RBC hemolysis was used as a metric for fusogenicity of LNPs at low pH. […] Particles were diluted to […] total lipid in well with 5% RBC solution and incubated at 37° C. for 45 min. Supernatant was collected and absorbance read on a microplate reader at 425 nm. Fusion was normalized to a fully lysed sample with 2% Triton™ and a buffer-only control. % hemolysis=100*[(ABS T-background)−(ABS sample-background)/(ABS T-background)].

[3] = Particle size and polydispersity (PDI) of delivery vehicles by dynamic light scattering; assay type: physicochemical; conditions: Table 5; delivery vehicle comprising the peptoid, Formulation D22, fLuc mRNA
Procedure: The resulting delivery vehicle complexes were evaluated by dynamic light scattering (DLS) to determine the volume average particle size/diameter (nm) and the size polydispersity index (PDI) within the delivery vehicle complex.
Particle size. Particle sizes and size distributions were measured using a Wyatt DynaPro® Plate Reader III. In general, formulated samples were diluted to 2 ng/μL in 100 µL PBS. Data is reported as the hydrodynamic diameter (in nm) of the cumulant fit of the correlation function, and the polydispersity of that measurement.
(§1) In one particular instance, the size and polydispersity (PDI) of delivery vehicles was measured by dynamic light scattering in PBS using a DynaPro® plate reader III. The zeta potential of delivery vehicles was determined using Nano-ZS™ particle analyzer. Zeta sample was diluted to 30 uM total lipid in a weakly buffered solution of 10 mM HEPES, 10 mM MES, 10 mM ammonium acetate pH 7. Measurements were collected in duplicate for over 30 run with the voltage manually set to […]

[4] = Percent encapsulated mRNA, RiboGreen assay; assay type: physicochemical; conditions: Table 5; delivery vehicle comprising the peptoid, Formulation D22, fLuc mRNA
Procedure: Percent encapsulation. The percentage of mRNA encapsulated within the delivery vehicle complexes containing Fluc mRNA was determined using a modified RiboGreen® assay. In general, formulated mRNA samples were diluted to 500 ng/ml in Tris-EDTA buffer with or without Triton-X™. RiboGreen® (Invitrogen) was added at a 200-fold dilution, and the plate was incubated for 5 minutes. Fluorescence was measured at Ex. […]/Em. 520 nm and encapsulated mRNA was calculated by taking the ratio of fluorescence for non-lysed particles versus lysed particles.
The mRNA concentration and the percentage of encapsulated mRNA were determined using a fluorescence-based Quant-iT™ RiboGreen® RNA Reagent Kit using a literature procedure. To determine the mRNA concentration, delivery vehicles were incubated with 2% Triton™ X-100 for 10 min to release entrapped mRNA, followed by addition of RiboGreen® RNA reagent. The fluorescence intensity of mRNA-RiboGreen® reagent complex (excitation at 485 nm and emission at 530 nm) was detected using a microplate reader. The ratio of fluorescence without and with Triton™ X-100 were used to calculate the percentage of encapsulated mRNA.

[5] = Zeta potential of delivery vehicles; assay type: physicochemical; conditions: Table 5; delivery vehicle, pH 7 buffer; in mV (unit assumed)
Procedure: as §1

[6] = pH 5, read-out: Hemolysis at pH 5
[7] = pH 7, read-out: Hemolysis at pH 7

SMILES | pKa (TNS) [1] | hemolysis at 45 min, 150 mM total lipid [2, 6] [%] | hemolysis at 45 min, 150 mM total lipid [2, 7] [%] | PDI [3] | Particle Size (nm) [3] [nm] | % Encapsulation [4] [%] | Zeta Potential [5]
CCCCCCCCCCN(CC(N)=O)C(=O)CN(CCCCCCCCCC)C(=O)CN(CCCCCCCCCC)C(=O)CN(CCCCCCCCCC)C(=O)CNC(CO)CO [Compound 37] | 6.418 | 7.8 | 23.9 | Multimodal | 181.4 | 56.4 | −0.676
CCCCCCCCCCN(CC(N)=O)C(=O)CN(CC(CC)CCCC)C(=O)CN(CCCCCCCCCC)C(=O)CN(CCCCCCCCCC)C(=O)CN(CC(CC)CCCC)C(=O)CN(CCCCCCCCCC)C(=O)CNC(CO)CO (stereo not shown) [Compound 43] (H-[N(CH(CH2OH)2)Gly][NDecylGly][N(2-ethylhexyl)Gly][NDecylGly][NDecylGly][N(2-ethylhexyl)Gly][NDecylGly]-NH2) | 4.595 | 1.2 | 0.2 | Multimodal | 2058.2 |  | −6.37
CCCCCCCCCCCCN(CC(=O)N(CCCCCC)CC(=O)N(CCCCCC)CC(=O)N(CC(=O)N(CCCCCCCCCCCC)CC(=O)N(CCCCCC)CC(=O)N(CCCCCC)CC(N)=O)CC(CC)CCCC)C(=O)CN(CC(CC)CCCC)C(=O)CNC(CO)CO (stereo not shown) [Compound 15] | 5.909 | 0.9 | 0.6 | 0.111 | 106.6 | 84.5 | −8
CCCCCCCCCCCCN(CC(=O)N(CCCCCCCCCCCC)CC(=O)N(CCCCCCCC)CC(=O)N(CCCCCCCCCCCC)CC(=O)N(CCCCCCCCCCCC)CC(=O)N(CCCCCCCC)CC(N)=O)C(=O)CNC(CO)CO [Compound 33] (H-[N(CH(CH2OH)2)Gly][Gly(N-dodecyl)][Gly(N-dodecyl)][N(octyl)Gly][Gly(N-dodecyl)][Gly(N-dodecyl)][N(octyl)Gly]-NH2) | 5.935 | 0.9 | 0.4 | 1 | 165.8 | −1.8 | −2.12
CCCCCCCC/C=C\CCCCCCCCN(CC(=O)N(CCCCCC)CC(=O)N(CCCCCC)CC(=O)N(CCCCCC)CC(=O)N(CCCCCCCC/C=C\CCCCCCCC)CC(=O)N(CCCCCC)CC(=O)N(CCCCCC)CC(=O)N(CCCCCC)CC(N)=O)C(=O)CNC(CO)CO [Compound 9] | 5.906 | 1.1 | 0.1 | 0.14 | 94.9 | 95.2 | −1.6
CCCCCCCC/C=C\CCCCCCCCN(CC(N)=O)C(=O)CN(CCCCCCCCCC)C(=O)CN(CCCCCCCC/C=C\CCCCCCCC)C(=O)CNC(CO)CO [Compound 7] (H-[N(CH(CH2OH)2)Gly][Gly(Nα-oleyl)][NDecylGly][Gly(Nα-oleyl)]-NH2) | 6.283 | 6.1 | 23.8 | 0.13 | 62.3 | 86.3 | −2.31
CCCCCCN(CC(N)=O)C(=O)CN(CC(CC)CCCC)C(=O)CN(CCCCCC)C(=O)CN(CC(CC)CCCC)C(=O)CN(CCCCCC)C(=O)CN(CC(CC)CCCC)C(=O)CN(CCCCCC)C(=O)CN(CC(CC)CCCC)C(=O)CNC(CO)CO (stereo not shown) [Compound 13] | 5.686 | 1.8 | 0.6 | 0.102 | 122.4 | 82.0 | −5.17
CCCCCCCCCCCCN(CC(N)=O)C(=O)CN(CCCCCCCCCCCC)C(=O)CN(CCCCCCCCCCCC)C(=O)CN(CCCCCCCCCCCC)C(=O)CNC(CO)CO [Compound 21] | 5.406 | 35.8 | 59.5 | 0.262 | 66.4 | 81.2 | 2.7

Source: patent US20260083769A1, “2-Aminopropane-1,3-Diol-Capped Cationic Peptoids for Nucleic Acid Delivery” (NUTCRACKER THERAPEUTICS, INC., priority 2022, published 2026)
